pEC50: −log10 of the molar value.
molecular target: T1, GLP-1R (Homo sapiens, UniProt P43220); test: EC20 GLP-1(9-36) PAM cAMP assay: dose response of compound in the presence of fixed concentration of GLP-1(9-36); assay type: cell-based; conditions: GLP-1R CRE-bla CHO-K1 cells, compound dose response in presence of fixed concentration of GLP-1(9-36)
T1 construct: host or cells: CRE-bla CHO-K1
Method in brief: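 Positive allosteric modulation read as cAMP rise: 12-point compound titration combined with a fixed EC20 level of GLP-1(9-36) on GLP-1R CHO-K1 cells, IBMX present, 30 min at 37 °C. Luminescent HitHunter signal converted to cAMP; nonlinear fit gave EC50 and Emax.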

T1 sequence (P43220 24-463): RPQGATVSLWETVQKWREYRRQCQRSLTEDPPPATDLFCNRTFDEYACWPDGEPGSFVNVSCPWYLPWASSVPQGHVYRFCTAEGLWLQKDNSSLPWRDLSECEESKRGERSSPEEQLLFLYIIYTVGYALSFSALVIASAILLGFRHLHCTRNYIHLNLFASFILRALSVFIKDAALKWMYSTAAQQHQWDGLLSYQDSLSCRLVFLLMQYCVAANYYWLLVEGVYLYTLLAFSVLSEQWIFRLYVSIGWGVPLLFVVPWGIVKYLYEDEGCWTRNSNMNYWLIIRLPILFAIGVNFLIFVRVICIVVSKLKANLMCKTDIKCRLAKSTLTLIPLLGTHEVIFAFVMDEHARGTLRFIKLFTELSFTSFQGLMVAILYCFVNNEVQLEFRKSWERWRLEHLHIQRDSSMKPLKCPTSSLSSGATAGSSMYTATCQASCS
T1 sequence (P01275 100-127 partner limits assumed): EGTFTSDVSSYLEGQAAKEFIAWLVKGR

SMILES | pEC50
CCCCCCCOc1ccc(-c2cnc(-c3ccc(C[C@H](NC(=O)c4ccc(C(C)(C)C)s4)C(=O)N4CCC[C@H]4C(=O)O)cc3)nc2)cc1 [Compound 328] | 5.60 to 6.10
CCCCCCCOc1ccc(-c2cnc(-c3ccc(C[C@H](NC(=O)c4ccc(C(C)(C)C)s4)C(=O)N4CCC[C@@H]4C(=O)O)cc3)nc2)cc1 [Compound 329] | 5.60 to 6.10
CCCCCCCOc1ccc(-c2cnc(-c3ccc(C[C@H](NC(=O)c4ccc(C(C)(C)C)s4)C(=O)N[C@@H](Cc4cnc[nH]4)C(=O)O)cc3)nc2)cc1 [Compound 332] | 5.60 to 6.10
CCCCCCCOc1ccc(-c2cnc(-c3ccc(C[C@H](NC(=O)c4ccc(C(C)(C)C)s4)C(=O)NC(CN4CCCC4)C(=O)O)cc3)nc2)cc1 (some centres unmarked) [Compound 338] | 5.60 to 6.10
CCCCCCCOc1ccc(-c2cnc(-c3ccc(C[C@H](NC(=O)c4ccc(C(C)(C)C)s4)C(=O)N4CCNC(C(=O)O)C4)cc3)nc2)cc1 (some centres unmarked) [Compound 339] | 5.60 to 6.10
CCCCCCCOc1ccc(-c2cnc(-c3ccc(C[C@H](NC(=O)c4ccc(C(C)(C)C)s4)C(=O)N[C@H](CCC(N)=O)C(=O)O)cc3)nc2)cc1 [Compound 341] | > 6.10
CCCCCCOc1ccc(-c2cnc(-c3ccc(C[C@H](NC(=O)c4ccc(C(C)(C)C)s4)C(=O)NCC4(C(=O)O)CCC4)cc3)nc2)cc1 [Compound 342] | 5.60 to 6.10
CCCCCCCOc1ccc(-c2cnc(-c3ccc(C[C@H](NC(=O)c4ccc(C(C)(C)C)s4)C(=O)N[C@H](CC(=O)O)Cc4ccccc4)cc3)nc2)cc1 [Compound 343] | 5.60 to 6.10
CCCCCCCOc1ccc(-c2cnc(-c3ccc(C[C@H](NC(=O)c4ccc(C(C)(C)C)s4)C(=O)N4CCC(C(=O)O)C4)cc3)nc2)cc1 (some centres unmarked) [Compound 344] | > 6.10
CCCCCCCOc1ccc(-c2cnc(-c3ccc(C[C@H](NC(=O)c4ccc(C(C)(C)C)s4)C(=O)N4CCCC(C(=O)O)C4)cc3)nc2)cc1 (some centres unmarked) [Compound 347] | > 6.10
CCCCCCCOc1ccc(-c2cnc(-c3ccc(C[C@H](NC(=O)c4ccc(C(C)(C)C)s4)C(=O)N4CC[C@@H](C(=O)O)C4)cc3)nc2)cc1 [Compound 348] | 5.60 to 6.10
CCCCCCCOc1ccc(-c2cnc(-c3ccc(C[C@H](NC(=O)c4ccc(C(C)(C)C)s4)C(=O)N4CC[C@H](C(=O)O)C4)cc3)nc2)cc1 [Compound 349] | > 6.10
CCCCCCCOc1ccc(-c2cnc(-c3ccc(C[C@H](NC(=O)c4ccc(C(C)(C)C)s4)C(=O)NC(CC(=O)O)c4ccc(O)cc4)cc3)nc2)cc1 (some centres unmarked) [Compound 350] | > 6.10
CC(C)(C)c1ccc(-c2cnc(-c3ccc(C[C@H](NC(=O)c4ccc(C(C)(C)C)s4)C(=O)NCC(=O)O)cc3)nc2)cc1 [Compound 351] | > 6.10
CC(C)(C)c1ccc(-c2cnc(-c3ccc(C[C@H](NC(=O)c4ccc(C(C)(C)C)s4)C(=O)N[C@@H](CO)C(=O)O)cc3)nc2)cc1 [Compound 352] | > 6.10
CC(C)(C)c1ccc(-c2cnc(-c3ccc(C[C@H](NC(=O)c4ccc(C(C)(C)C)s4)C(=O)N[C@H](CCC(N)=O)C(=O)O)cc3)nc2)cc1 [Compound 353] | 5.60 to 6.10
CC(C)(C)c1ccc(-c2cnc(-c3ccc(C[C@H](NC(=O)c4ccc(C(C)(C)C)s4)C(=O)N[C@H](CO)C(=O)O)cc3)nc2)cc1 [Compound 354] | > 6.10

SMILES | pEC50
CC(C)(C)c1ccc(-c2cnc(-c3ccc(C[C@H](NC(=O)c4ccc(C(C)(C)C)s4)C(=O)N[C@H](CC(=O)O)C(=O)O)cc3)nc2)cc1 [Compound 355] | 5.60 to 6.10
CC(C)(C)c1ccc(-c2cnc(-c3ccc(C[C@H](NC(=O)c4ccc(C(C)(C)C)s4)C(=O)N[C@H](Cc4cnc[nH]4)C(=O)O)cc3)nc2)cc1 [Compound 356] | 5.60 to 6.10
C[C@@H](NC(=O)[C@H](Cc1ccc(-c2ncc(-c3ccc(C(C)(C)C)cc3)cn2)cc1)NC(=O)c1ccc(C(C)(C)C)s1)C(=O)O [Compound 357] | 5.60 to 6.10
CC(C)(C)c1ccc(-c2cnc(-c3ccc(C[C@H](NC(=O)c4ccc(C(C)(C)C)s4)C(=O)N4CCC[C@@H]4C(=O)O)cc3)nc2)cc1 [Compound 358] | 5.60 to 6.10
CC(C)(C)c1ccc(-c2cnc(-c3ccc(C[C@H](NC(=O)c4ccc(C(C)(C)C)s4)C(=O)N[C@H](CCC(=O)O)C(=O)O)cc3)nc2)cc1 [Compound 359] | 5.60 to 6.10
CC(C)(C)c1ccc(-c2cnc(-c3ccc(C[C@H](NC(=O)c4ccc(C(C)(C)C)s4)C(=O)N[C@@H](CCC(N)=O)C(=O)O)cc3)nc2)cc1 [Compound 360] | 5.60 to 6.10
CC(C)(C)c1ccc(-c2cnc(-c3ccc(C[C@H](NC(=O)c4ccc(C(C)(C)C)s4)C(=O)N[C@@H](CC(=O)O)C(=O)O)cc3)nc2)cc1 [Compound 361] | 5.60 to 6.10
CC(C)(C)c1ccc(-c2cnc(-c3ccc(C[C@H](NC(=O)c4ccc(C(C)(C)C)s4)C(=O)N4CCC[C@H]4C(=O)O)cc3)nc2)cc1 [Compound 362] | 5.30 to 5.60
CC(C)(C)c1ccc(-c2cnc(-c3ccc(C[C@H](NC(=O)c4ccc(C(C)(C)C)s4)C(=O)N[C@@H](CCC(=O)O)C(=O)O)cc3)nc2)cc1 [Compound 363] | 5.60 to 6.10
C[C@H](NC(=O)[C@H](Cc1ccc(-c2ncc(-c3ccc(C(C)(C)C)cc3)cn2)cc1)NC(=O)c1ccc(C(C)(C)C)s1)C(=O)O [Compound 364] | 5.60 to 6.10
CC(C)(C)c1ccc(-c2cnc(-c3ccc(C[C@H](NC(=O)c4ccc(C(C)(C)C)s4)C(=O)NC(CN4CCCC4)C(=O)O)cc3)nc2)cc1 (some centres unmarked) [Compound 365] | 5.30 to 5.60
CC(C)(C)c1ccc(-c2cnc(-c3ccc(C[C@H](NC(=O)c4ccc(C(C)(C)C)s4)C(=O)NC(CN)C(=O)O)cc3)nc2)cc1 (some centres unmarked) [Compound 366] | 5.30 to 5.60
CSCC[C@H](NC(=O)[C@H](Cc1ccc(-c2ncc(-c3ccc(C(C)(C)C)cc3)cn2)cc1)NC(=O)c1ccc(C(C)(C)C)s1)C(=O)O [Compound 367] | 5.60 to 6.10
CSCC[C@@H](NC(=O)[C@H](Cc1ccc(-c2ncc(-c3ccc(C(C)(C)C)cc3)cn2)cc1)NC(=O)c1ccc(C(C)(C)C)s1)C(=O)O [Compound 368] | > 6.10
CC(C)(C)c1ccc(-c2cnc(-c3ccc(C[C@@H](NC(=O)c4ccc(C(C)(C)C)s4)C(=O)NCC(=O)O)cc3)nc2)cc1 [Compound 373] | 5.60 to 6.10
CCCCCCCOc1ccc(-c2cnc(-c3ccc(C[C@@H](NC(=O)c4ccc(C(C)(C)C)s4)C(=O)N[C@@H](CCC(N)=O)C(=O)O)cc3)nc2)cc1 [Compound 377] | > 6.10

Next, values leading:

pEC50 | SMILES
> 6.10 | CCCCCCCOc1ccc(-c2cnc(-c3ccc(C[C@H](NC(=O)c4ccc(C(C)(C)C)s4)C(=O)N[C@H](C)C(=O)O)cc3)nc2)cc1 [Compound 327]
5.60 to 6.10 | CCCCCCCOc1ccc(-c2cnc(-c3ccc(C[C@H](NC(=O)c4ccc(C(C)(C)C)s4)C(=O)N[C@@H](CCC(=O)O)C(=O)O)cc3)nc2)cc1 [Compound 330]
5.60 to 6.10 | CCCCCCCOc1ccc(-c2cnc(-c3ccc(C[C@H](NC(=O)c4ccc(C(C)(C)C)s4)C(=O)N[C@H](CCC(=O)O)C(=O)O)cc3)nc2)cc1 [Compound 331]
> 6.10 | CCCCCCCOc1ccc(-c2cnc(-c3ccc(C[C@H](NC(=O)c4ccc(C(C)(C)C)s4)C(=O)N[C@@H](C)C(=O)O)cc3)nc2)cc1 [Compound 333]
5.60 to 6.10 | CCCCCCCOc1ccc(-c2cnc(-c3ccc(C[C@H](NC(=O)c4ccc(C(C)(C)C)s4)C(=O)N(C)CCC(=O)O)cc3)nc2)cc1 [Compound 334]
5.60 to 6.10 | CCCCCCCOc1ccc(-c2cnc(-c3ccc(C[C@H](NC(=O)c4ccc(C(C)(C)C)s4)C(=O)NC(C)(C)CC(=O)O)cc3)nc2)cc1 [Compound 335]
> 6.10 | CCCCCCCOc1ccc(-c2cnc(-c3ccc(C[C@H](NC(=O)c4ccc(C(C)(C)C)s4)C(=O)NCCC(=O)O)cc3)nc2)cc1 [Compound 336]
5.60 to 6.10 | CCCCCCCOc1ccc(-c2cnc(-c3ccc(C[C@H](NC(=O)c4ccc(C(C)(C)C)s4)C(=O)NC(CN(C)C)C(=O)O)cc3)nc2)cc1 (some centres unmarked) [Compound 337]
5.60 to 6.10 | CCCCCCCOc1ccc(-c2cnc(-c3ccc(C[C@H](NC(=O)c4ccc(C(C)(C)C)s4)C(=O)NCC4(C(=O)O)CC4)cc3)nc2)cc1 [Compound 340]
> 6.10 | CCCCCCCOc1ccc(-c2cnc(-c3ccc(C[C@H](NC(=O)c4ccc(C(C)(C)C)s4)C(=O)N[C@H](C)CC(=O)O)cc3)nc2)cc1 [Compound 345]
5.60 to 6.10 | CCCCCCCOc1ccc(-c2cnc(-c3ccc(C[C@H](NC(=O)c4ccc(C(C)(C)C)s4)C(=O)N[C@@H](C)CC(=O)O)cc3)nc2)cc1 [Compound 346]
5.60 to 6.10 | CCCCCCCOc1ccc(-c2cnc(-c3ccc(C[C@H](NC(=O)c4cnn(C(C)C)c4)C(=O)NCC(=O)O)cc3)nc2)cc1 [Compound 369]
5.60 to 6.10 | CC(C)n1cc(C(=O)N[C@@H](Cc2ccc(-c3ncc(-c4ccc(C(C)(C)C)cc4)cn3)cc2)C(=O)NCC(=O)O)cn1 [Compound 370]
> 6.10 | CCCCCCCOc1ccc(-c2cnc(-c3ccc(C[C@H](NC(=O)c4ncc(C(C)(C)C)s4)C(=O)NCC(=O)O)cc3)nc2)cc1 [Compound 371]
> 6.10 | CCCCCCCOc1ccc(-c2cnc(-c3ccc(C[C@H](NC(=O)c4cnn(C(C)(C)C)c4)C(=O)NCC(=O)O)cc3)nc2)cc1 [Compound 372]
5.60 to 6.10 | CCCCCCCOc1ccc(-c2cnc(-c3ccc(C[C@@H](NC(=O)c4ccc(C(C)(C)C)s4)C(=O)N[C@@H](C)C(=O)O)cc3)nc2)cc1 [Compound 374]
> 6.10 | CCCCCCCOc1ccc(-c2cnc(-c3ccc(C[C@@H](NC(=O)c4ccc(C(C)(C)C)s4)C(=O)N[C@H](C)C(=O)O)cc3)nc2)cc1 [Compound 375]
5.60 to 6.10 | CCCCCCCOc1ccc(-c2cnc(-c3ccc(C[C@@H](NC(=O)c4ccc(C(C)(C)C)s4)C(=O)NCC(=O)O)cc3)nc2)cc1 [Compound 376]
> 6.10 | CCCCCCCOc1ccc(-c2cnc(-c3ccc(C[C@@H](NC(=O)c4ccc(C(C)(C)C)s4)C(=O)N[C@@H](CO)C(=O)O)cc3)nc2)cc1 [Compound 378]
> 6.10 | CCCCCCCOc1ccc(-c2cnc(-c3ccc(C[C@@H](NC(=O)c4ccc(C(C)(C)C)s4)C(=O)N[C@H](CO)C(=O)O)cc3)nc2)cc1 [Compound 379]

Reference: patent publication US8778923B2, “GLP-1 receptor modulators” (Receptos, Inc., priority 2011, dated 2014)
